Like-named read-outs stand apart in the source and are kept apart here.
What was measured:
human full-lengt MKNK1 = human full-lengt MKNK1 (Homo sapiens (Human), UniProt Q9BUB5, T344D); experiment: MKNK1 kinase assay (TR-FRET, 10 μM ATP); type: biochemical
Excerpt: MKNK1-inhibitory activity of compounds of the present invention was quantified employing the MKNK1 TR-FRET assay as described in the following paragraphs.
(§1) A recombinant fusion protein of Glutathione-S-Transferase (GST, N-terminally) and human full-lengt MKNK1 (amino acids 1-424 and T344D of accession number BAA 19885.1), expressed in insect cells using baculovirus expression system and purified via glutathione sepharose affinity chromatography, was purchased from Carna Biosciences (product no 02-145) and used as enzyme. As substrate for the kinase reaction the biotinylated peptide biotin-Ahx-[…] (C-terminus in amide form) was used which can be purchased e.g. form the company Biosyntan (Berlin-Buch, Germany).
(§2) For the assay 50 nL of a 100 fold concentrated solution of the test compound in DMSO was pipetted into a black low volume 384 well microtiter plate (Greiner Bio-One, Frickenhausen, Germany), 2 μL of a solution of MKNK1 in aqueous assay buffer [50 mM HEPES pH 7.5, 5 mM magnesium chloride, 1.0 mM dithiothreitol, 0.005% (v/v) Nonidet-P40 (Sigma)] was added and the mixture was incubated for 15 min at 22° C. to allow pre-binding of the test compounds to the enzyme before the start of the kinase reaction. Then the kinase reaction was started by the addition of 3 μL of a solution of adenosine-tri-phosphate (ATP, 16.7 μM=>final conc. in the 5 μL assay volume is 10 μM) and substrate (0.1 μM=>final conc. in the 5 μL assay volume is 0.06 μM) in assay buffer and the resulting mixture was incubated for a reaction time of 45 min at 22° C. The concentration of MKNK1 was adjusted depending of the activity of the enzyme lot and was chosen appropriate to have the assay in the linear range, typical concentrations were in the range of 0.05 μg/ml. The reaction was stopped by the addition of 5 μL of a solution of TR-FRET detection reagents (5 nM streptavidine-XL665 [Cisbio Bioassays, Codolet, France] and 1 nM anti-ribosomal protein S6 (pSer236)-antibody from Invitrogen [#44921G] and 1 nM LANCE EU-W1024 labeled ProteinG [Perkin-Elmer, product no. AD0071]) in an aqueous EDTA-solution (100 mM EDTA, 0.1% (w/v) bovine serum albumin in 50 mM HEPES pH 7.5).
(§3) The resulting mixture was incubated for 1 h at 22° C. to allow the formation of complex between the phosphorylated biotinylated peptide and the detection reagents. Subsequently the amount of phosphorylated substrate was evaluated by measurement of the resonance energy transfer from the Eu-chelate to the streptavidine-XL. Therefore, the fluorescence emissions at 620 nm and 665 nm after excitation at 350 nm were measured in a TR-FRET reader, e.g. a Rubystar (BMG Labtechnologies, Offenburg, Germany) or a Viewlux (Perkin-Elmer). The ratio of the emissions at 665 nm and at 622 nm was taken as the measure for the amount of phosphorylated substrate.

human full-length MKNK1 = human full-length MKNK1 (Homo sapiens (Human), UniProt Q9BUB5, T344D); experiment: MKNK1 kinase high ATP assay (TR-FRET, 2 mM ATP); type: biochemical
Sequence of human full-length MKNK1 (Q9BUB5 other isoform, or with tags, fused parts or gaps T344D): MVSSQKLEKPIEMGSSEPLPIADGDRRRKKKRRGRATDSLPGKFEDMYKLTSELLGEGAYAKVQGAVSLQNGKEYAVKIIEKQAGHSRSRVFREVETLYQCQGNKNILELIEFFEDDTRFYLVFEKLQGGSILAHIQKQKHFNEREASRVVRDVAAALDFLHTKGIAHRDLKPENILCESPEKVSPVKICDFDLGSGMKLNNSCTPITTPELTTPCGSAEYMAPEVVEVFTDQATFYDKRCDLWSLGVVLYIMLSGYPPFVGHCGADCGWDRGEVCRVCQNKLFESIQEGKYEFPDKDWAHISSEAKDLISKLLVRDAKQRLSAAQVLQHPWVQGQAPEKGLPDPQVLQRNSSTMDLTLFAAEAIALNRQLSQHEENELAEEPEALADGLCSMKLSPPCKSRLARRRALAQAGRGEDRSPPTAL
Experimental: MKNK1 Kinase High ATP Assay
MKNK1-inhibitory activity at high ATP of compounds of the present invention after their preincubation with MKNK1 was quantified employing the TR-FRET-based MKNK1 high ATP assay as described in the following paragraphs.
as §1, with “human full-length” for “human full-lengt”, “was used,” for “was used”, “e.g. from” for “e.g. form”
as §2, with “3.3 mM=>final” for “16.7 μM=>final”, “2 mM)” for “10 μM)”, “30” for “45”, “0.003 μg/mL.” for “0.05 μg/ml.”
as §3

[1] = read-out: IC50 MKNK1 (10 μM ATP), 15 min preincubation, GST-MKNK1 T344D
[2] = read-out: IC50 MKNK1 (2 mM ATP), 15 min preincubation, GST-MKNK1 T344D
[3] = 15 min preincubation, GST-MKNK1 T344D

Sequence of human full-lengt MKNK1 (Q9BUB5 other isoform, or with tags, fused parts or gaps T344D): as above

| SMILES | IC50 (human full-lengt MKNK1; [1]) [nM] | IC50 (human full-length MKNK1; [2]) [nM] | IC50 (human full-lengt MKNK1; [3]) [nM] | IC50 (human full-length MKNK1; [3]) [nM] |
| --- | --- | --- | --- | --- |
| OC[C@H]1C[C@H](Nc2ccc3ncc(-c4cc5ccccc5o4)n3n2)C1 [Example 1, (trans-3-{[3-(1-Benzofuran-2-yl)imidazo[1,2-b]pyridazin-6-yl]amino}cyclobutyl)methanol] | 8 | 11 | – | – |
| O[C@@H]1CCC[C@H]1Nc1ccc2ncc(-c3cc4ccccc4o3)n2n1 [Example 4, (1R,2R)-2-{[3-(1-Benzofuran-2-yl)imidazo[1,2-b]pyridazin-6-yl]amino}cyclopentanol] | 14 | 41 | – | – |
| O[C@H]1CCC[C@@H]1Nc1ccc2ncc(-c3cc4ccccc4o3)n2n1 [Example 6, (1S,2S)-2-{[3-(1-Benzofuran-2-yl)imidazo[1,2-b]pyridazin-6-yl]amino}cyclopentanol] | 22 | 52 | – | – |
| O[C@@H]1CCC[C@@H]1Nc1ccc2ncc(-c3cc4ccccc4o3)n2n1 [Example 7, (1R,2S)-2-{[3-(1-Benzofuran-2-yl)imidazo[1,2-b]pyridazin-6-yl]amino}cyclopentanol] | 24 | 66 | – | – |
| O[C@H]1CCCC[C@@H]1Nc1ccc2ncc(-c3cc4ccccc4o3)n2n1 [Example 8, (1S,2S)-2-{[3-(1-Benzofuran-2-yl)imidazo[1,2-b]pyridazin-6-yl]amino}cyclohexanol] | 126 | 94 | – | – |
| O[C@H]1CC[C@H](Nc2ccc3ncc(-c4cc5ccccc5o4)n3n2)CC1 [Example 10, trans-4-{[3-(1-Benzofuran-2-yl)imidazo[1,2-b]pyridazin-6-yl]amino}cyclohexanol] | 12 | 31 | – | – |

Further lines, results first:

| IC50 (human full-lengt MKNK1; [1]) [nM] | IC50 (human full-length MKNK1; [2]) [nM] | IC50 (human full-lengt MKNK1; [3]) [nM] | IC50 (human full-length MKNK1; [3]) [nM] | SMILES |
| --- | --- | --- | --- | --- |
| – | – | 9 | 21 | O[C@H]1C[C@H](CNc2ccc3ncc(-c4cc5ccccc5o4)n3n2)C1 [Example 2, trans-3-({[3-(1-Benzofuran-2-yl)imidazo[1,2-b]pyridazin-6-yl]amino}methyl)-cyclobutanol] |
| 10 | 30 | – | – | O[C@H]1CCC[C@H]1Nc1ccc2ncc(-c3cc4ccccc4o3)n2n1 [Example 3, (1S,2R)-2-{[3-(1-Benzofuran-2-yl)imidazo[1,2-b]pyridazin-6-yl]amino}cyclopentanol] |
| 42 | 49 | – | – | O[C@@H]1CCCC[C@@H]1Nc1ccc2ncc(-c3cc4ccccc4o3)n2n1 [Example 5, (1R,2S)-2-{[3-(1-Benzofuran-2-yl)imidazo[1,2-b]pyridazin-6-yl]amino}cyclohexanol] |
| 318 | 210 | – | – | O[C@@H]1CCCC[C@H]1Nc1ccc2ncc(-c3cc4ccccc4o3)n2n1 [Example 9, (1R,2R)-2-{[3-(1-Benzofuran-2-yl)imidazo[1,2-b]pyridazin-6-yl]amino}cyclohexanol] |
| 14 | 52 | – | – | O[C@H]1C[C@H](Nc2ccc3ncc(-c4cc5cnccc5o4)n3n2)C1 [Example 11, trans-3-{[3-(Furo[3,2-c]pyridin-2-yl)imidazo[1,2-b]pyridazin-6-yl]amino}cyclobutanol] |
